Test results taken from the CheMixHub viscosity set.

Assay: xn = mol fraction of the nth substance listed

CC1=CCC(=C(C)C)CC1 + Clc1ccccc1
viscosity [mPa·s], 101 kPa
Settings | x1 = 0.0668 | x1 = 0.1386 | x1 = 0.2162 | x1 = 0.3003 | x1 = 0.3917 | x1 = 0.4913 | x1 = 0.6004 | x1 = 0.7203 | x1 = 0.8528
303.15 K | 0.729 | 0.761 | 0.798 | 0.836 | 0.874 | 0.908 | 0.934 | 0.955 | 0.974
308.15 K | 0.692 | 0.722 | 0.756 | 0.791 | 0.826 | 0.858 | 0.881 | 0.897 | 0.913
313.15 K | 0.649 | 0.677 | 0.709 | 0.743 | 0.775 | 0.804 | 0.825 | 0.839 | 0.853

CC(F)(F)F + FC(F)C(F)(F)F
viscosity [mPa·s], 101 kPa
Settings | x1 = 0.248 | x1 = 0.5 | x1 = 0.759
298.15 K | 0.1286 | 0.1205 | 0.117
313.15 K | 0.1036 | – | –

CC(F)(F)F + FCC(F)(F)F
viscosity [mPa·s], 101 kPa
Settings | x2 = 0.247 | x2 = 0.5 | x2 = 0.743
298.15 K | 0.126 | 0.1447 | 0.1691
313.15 K | 0.105 | 0.1187 | 0.1358

CC1=CCC(=C(C)C)CC1 + Fc1ccccc1
viscosity [mPa·s], 101 kPa
Settings | x1 = 0.062 | x1 = 0.1294 | x1 = 0.2031 | x1 = 0.2839 | x1 = 0.3729 | x1 = 0.4714 | x1 = 0.5811 | x1 = 0.704 | x1 = 0.8425
303.15 K | 0.563 | 0.61 | 0.661 | 0.715 | 0.771 | 0.824 | 0.87 | 0.912 | 0.951
308.15 K | 0.53 | 0.572 | 0.621 | 0.672 | 0.725 | 0.774 | 0.818 | 0.855 | 0.889
313.15 K | 0.498 | 0.536 | 0.582 | 0.631 | 0.681 | 0.727 | 0.767 | 0.8 | 0.831

CCCCn1cc[n+](C)c1.F[P-](F)(F)(F)(F)F + NCCO
viscosity [mPa·s], 101 kPa
Settings | x2 = 0.1185 | x2 = 0.2113 | x2 = 0.3052 | x2 = 0.4282 | x2 = 0.4918 | x2 = 0.6161 | x2 = 0.6984 | x2 = 0.8022 | x2 = 0.9028
293.15 K | – | 124.5 | 102.5 | 78.15 | 68.3 | 51.7 | 43.55 | 34.1 | 27.33
298.15 K | – | 92.28 | 76.44 | 58.74 | 51.63 | 39.18 | 33.39 | 26.29 | –
303.15 K | – | – | 57.84 | 44.92 | 39.41 | 30.4 | 25.89 | – | –
308.15 K | 67.48 | 54.83 | 44.08 | 34.54 | 30.31 | – | – | – | –
313.15 K | – | 42.41 | 34.89 | 27.36 | – | – | – | – | –
318.15 K | 42.44 | 33.84 | 28.14 | – | – | – | – | – | 9.08
323.15 K | 34.88 | 28.08 | – | – | – | – | – | 9.09 | 7.67

[Na+].[O-][Cl+2]([O-])[O-] + O
viscosity [mPa·s], 100 kPa
Settings | x1 = 0.001798 | x1 = 0.003644 | x1 = 0.005393 | x1 = 0.007261 | x1 = 0.008945 | x1 = 0.01087 | x1 = 0.01261 | x1 = 0.01436 | x1 = 0.01582 | x1 = 0.01761
293.15 K | 0.996 | 1.007 | 1.017 | 1.025 | 1.033 | 1.042 | 1.05 | 1.058 | 1.067 | 1.076
298.15 K | 0.889 | 0.897 | 0.908 | 0.918 | 0.926 | 0.933 | 0.942 | 0.949 | 0.957 | 0.965
303.15 K | 0.801 | 0.809 | 0.817 | 0.827 | 0.835 | 0.841 | 0.849 | 0.857 | 0.865 | 0.873
308.15 K | 0.726 | 0.734 | 0.742 | 0.75 | 0.758 | 0.765 | 0.774 | 0.781 | 0.788 | 0.796
313.15 K | 0.663 | 0.67 | 0.678 | 0.685 | 0.693 | 0.7 | 0.708 | 0.716 | 0.723 | 0.729
318.15 K | 0.609 | 0.616 | 0.623 | 0.631 | 0.637 | 0.643 | 0.65 | 0.657 | 0.665 | 0.672
